According to the CheMixHub viscosity set:

Assay: xn = mol fraction of the nth substance listed

CC(=O)CC(C)C + CCCCCCCCCCO
viscosity [mPa·s], 100 kPa
Conditions	x1 = 0.0846	x1 = 0.1569	x1 = 0.2402	x1 = 0.3455	x1 = 0.4437	x1 = 0.5617	x1 = 0.6591	x1 = 0.7447	x1 = 0.8561	x1 = 0.9486
293.15 K	12.8	11.5	10.21	8.72	7.39	5.89	4.69	3.64	2.29	1.18
303.15 K	8.66	7.8	6.94	5.94	5.05	4.05	3.24	2.55	1.65	0.92
313.15 K	6.09	5.5	4.91	4.21	3.59	2.9	2.34	1.85	1.23	0.74
323.15 K	4.44	4.02	3.58	3.08	2.64	2.15	1.75	1.4	0.96	0.61

CC(=O)CC(C)C + CCCCCCCCCO
viscosity [mPa·s], 100 kPa
Conditions	x1 = 0.0834	x1 = 0.1721	x1 = 0.2398	x1 = 0.3469	x1 = 0.4365	x1 = 0.5577	x1 = 0.6608	x1 = 0.7339	x1 = 0.8594	x1 = 0.9502
293.15 K	9.91	8.52	7.62	6.42	5.48	4.28	3.31	2.64	1.6	0.93
303.15 K	6.85	5.94	5.34	4.49	3.86	3.05	2.42	1.99	1.27	0.78
313.15 K	4.92	4.29	3.87	3.27	2.82	2.27	1.82	1.51	1	0.65
323.15 K	3.63	3.18	2.88	2.45	2.13	1.73	1.4	1.18	0.81	0.55

CC(=O)CC(C)C + CCCCCCCCO
viscosity [mPa·s], 100 kPa
Conditions	x1 = 0.0818	x1 = 0.1616	x1 = 0.2492	x1 = 0.3517	x1 = 0.4411	x1 = 0.5629	x1 = 0.6505	x1 = 0.7501	x1 = 0.8518	x1 = 0.9519
293.15 K	7.68	6.48	5.45	4.46	3.71	2.87	2.32	1.72	1.2	0.76
303.15 K	5.45	4.69	3.97	3.27	2.78	2.19	1.8	1.37	0.97	0.65
313.15 K	4	3.46	2.97	2.47	2.1	1.67	1.4	1.11	0.82	0.57
323.15 K	3	2.63	2.28	1.92	1.65	1.34	1.14	0.93	0.71	0.5

CC(=O)CC(C)C + CCCCCCCO
viscosity [mPa·s], 100 kPa
Conditions	x1 = 0.0823	x1 = 0.1682	x1 = 0.2346	x1 = 0.3569	x1 = 0.4379	x1 = 0.5614	x1 = 0.6493	x1 = 0.7489	x1 = 0.8505	x1 = 0.9471
293.15 K	5.46	4.21	3.56	2.62	2.19	1.66	1.37	1.1	0.86	0.68
303.15 K	4.09	3.24	2.78	2.08	1.76	1.35	1.13	0.91	0.72	0.59
313.15 K	3.09	2.53	2.2	1.71	1.45	1.14	0.96	0.79	0.63	0.52
323.15 K	2.37	1.98	1.76	1.4	1.22	0.98	0.83	0.68	0.56	0.47

O=C1CCCCC1 + CCCCCCCO
298.15 K, 101 kPa
Conditions	viscosity [mPa·s]
x2 = 0.1013	1.965
x2 = 0.1998	2.034
x2 = 0.3029	2.16
x2 = 0.4029	2.351
x2 = 0.4994	2.584
x2 = 0.5977	2.914
x2 = 0.6971	3.335
x2 = 0.8008	3.921
x2 = 0.8949	4.663
